Experimental data from ChEMBL document CHEMBL1149596, “QSAR study of selective ligands for the thyroid hormone receptor beta” (Bioorg Med Chem, 2007).
“And” between values parts separate entries of the source, which are not always exact repeats. Equal values may be shown once.

Target: T1, Thyroid hormone receptor beta (Homo sapiens, UniProt P10828)
T1 sequence (P10828 whole entry): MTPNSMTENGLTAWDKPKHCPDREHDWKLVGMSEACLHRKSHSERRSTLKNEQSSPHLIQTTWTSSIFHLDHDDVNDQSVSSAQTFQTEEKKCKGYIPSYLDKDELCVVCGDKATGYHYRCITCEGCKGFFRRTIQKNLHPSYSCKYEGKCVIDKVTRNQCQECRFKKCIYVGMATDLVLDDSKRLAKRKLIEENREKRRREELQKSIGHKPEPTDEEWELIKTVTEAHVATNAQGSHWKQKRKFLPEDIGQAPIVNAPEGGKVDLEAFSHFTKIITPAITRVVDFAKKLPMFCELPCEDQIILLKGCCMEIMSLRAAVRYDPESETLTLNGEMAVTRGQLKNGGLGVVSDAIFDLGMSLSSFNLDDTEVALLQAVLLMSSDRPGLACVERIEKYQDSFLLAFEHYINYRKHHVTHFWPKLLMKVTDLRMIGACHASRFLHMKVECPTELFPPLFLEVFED

Structure (SMILES) | IC50
CC1(C)C2CCC(NC(=O)c3cc(Oc4c(Cl)cc(-n5ncc(=O)[nH]c5=O)cc4Cl)ccc3O)C1C2 (stereo in doubt; 42) | 0.166 nM
O=C(c1cc(Oc2c(Cl)cc(-n3ncc(=O)[nH]c3=O)cc2Cl)ccc1O)N1CCCCC1 | 1.74 nM and 5.25 nM
O=C(O)Cc1cc(Br)c(Oc2ccc(O)c(C(=O)NCC(c3ccccc3)c3ccccc3)c2)c(Br)c1 | 37.2 nM
Cc1cc(-n2ncc(=O)[nH]c2=O)cc(C)c1Oc1ccc(O)c(S(=O)(=O)N2CCCCC2)c1 | 1.29 nM
O=c1cnn(-c2cc(Cl)c(Oc3ccc(O)c(S(=O)(=O)N4C5CCC4CC4(CCCO4)C5)c3)c(Cl)c2)c(=O)[nH]1 (configuration not stated) | 0.776 nM
O=C(c1cc(Oc2c(Cl)cc(-n3ncc(=O)[nH]c3=O)cc2Cl)ccc1O)N1CCOCC1 | 2 nM
COc1ccc(CCNC(=O)c2cc(Oc3c(Br)cc(CC(=O)O)cc3Br)ccc2O)cc1 | 4.79 nM
O=C(NC1CCC1)c1cc(Oc2c(Cl)cc(-n3ncc(=O)[nH]c3=O)cc2Cl)ccc1O | 1.78 nM
O=c1cnn(-c2cc(Cl)c(Oc3ccc(O)c(S(=O)(=O)Nc4ccccc4)c3)c(Cl)c2)c(=O)[nH]1 | 0.282 nM
O=c1cnn(-c2cc(Cl)c(Oc3ccc(O)c(S(=O)(=O)N4C5CCC4CC4(C5)OCCO4)c3)c(Cl)c2)c(=O)[nH]1 | 0.871 nM
O=c1cnn(-c2cc(Cl)c(Oc3ccc(O)c(S(=O)(=O)NC4CCCCC4)c3)c(Cl)c2)c(=O)[nH]1 | 1.29 nM
CC1(C)C2CCC1(C)[C@H](NC(=O)c1cc(Oc3c(Cl)cc(-n4ncc(=O)[nH]c4=O)cc3Cl)ccc1O)C2 (some centres not stated) | 1.02 nM
O=c1cnn(-c2cc(Cl)c(Oc3ccc(O)c(S(=O)(=O)N4CCc5ccccc54)c3)c(Cl)c2)c(=O)[nH]1 | 0.646 nM
O=c1cnn(-c2cc(Cl)c(Oc3ccc(O)c(S(=O)(=O)N4CCCCC4)c3)c(Cl)c2)c(=O)[nH]1 | 0.0562 nM
O=C(O)Cc1cc(Br)c(Oc2ccc(O)c(C(=O)NC(=O)c3ccccc3)c2)c(Br)c1 | 4.17 nM
COc1ccccc1CCNC(=O)c1cc(Oc2c(Br)cc(CC(=O)O)cc2Br)ccc1O | 0.468 nM
O=c1cnn(-c2cc(Cl)c(Oc3ccc(O)c(S(=O)(=O)NC4CCC4)c3)c(Cl)c2)c(=O)[nH]1 | 1.12 nM
Cc1cc(-n2ncc(=O)[nH]c2=O)cc(Cl)c1Oc1ccc(O)c(S(=O)(=O)N2CCOCC2)c1 | 75.9 nM
O=C(NC1CCCCC1)c1cc(Oc2c(Cl)cc(-n3ncc(=O)[nH]c3=O)cc2Cl)ccc1O | 0.195 nM
Cc1cc(-n2ncc(=O)[nH]c2=O)cc(Cl)c1Oc1ccc(O)c(S(=O)(=O)N2CCCCC2)c1 | 0.363 nM
CC1(C)C2CCC(NC(=O)c3cc(Oc4c(Cl)cc(-n5ncc(=O)[nH]c5=O)cc4Cl)ccc3O)C1C2 (stereo in doubt; 43) | 0.112 nM
COc1cccc(CCNC(=O)c2cc(Oc3c(Br)cc(CC(=O)O)cc3Br)ccc2O)c1 | 8.51 nM
